These results are taken from ChEMBL document CHEMBL1156824, “Physicochemical space for optimum oral bioavailability: contribution of human intestinal absorption and first-pass elimination” (J Med Chem, 2010).

One may read the clearance as the rate of elimination divided by the concentration. A higher clearance goes with a high capacity for elimination. For orientation: Vd means the apparent volume that relates the amount in the body to the concentration in plasma or blood. A lower Vd goes with little distribution into tissue. By fraction unbound is commonly meant free concentration divided by total concentration. A high value points to much free substance. What is called Vdss is the apparent volume that relates the amount in the body to the concentration in plasma or blood. High values mean wide distribution into tissue, low ones little distribution into tissue.

For data set [1], the species on record is Homo sapiens. As to the kind of experiment: Hepatic clearance in human. The settings on record: in vivo.
Data set [2] in a line: clinical. The following applies: human, in vivo.
Data set [3] in a line: clinical. The settings on record: human, in vivo. This is another data set of the same source.
Another data set concerns Plasma. Briefly: Fraction unbound in human plasma.
A short description of data set [4]: (§1) Volume of distribution at steady state in human. The settings on record: in vivo.
The test system of data set [5] is Homo sapiens. Briefly: Oral bioavailability in human. The settings on record: in vivo.
The species entered for data set [6] is Homo sapiens. The following applies: in vivo.
The species named for data set [7] is Homo sapiens. As to the kind of experiment: Fraction escaping gut-wall elimination in human. The settings on record: in vivo.
For data set [8], the species on record is Homo sapiens. As to the kind of experiment: Fraction escaping hepatic elimination in human. The settings on record: in vivo.
The species named for data set [9] is Homo sapiens. Briefly: Fraction absorbed in human. The settings on record: in vivo.
For data set [10], the species on record is Homo sapiens. As to the kind of experiment: in vitro. The settings on record: plasma.
The species entered for data set [11] is Homo sapiens. The description is as §1. The settings on record: in vivo.

On to `Cc1onc(-c2ccccc2Cl)c1C(=O)N[C@@H]1C(=O)N2[C@@H]1SC(C)(C)[C@@H]2C(=O)O` [CLOXACILLIN], for which the CL in the data set filed under Homo sapiens [1] is 0.6 mL/min/kg. Besides, in the data set “clinical [2]”, the clearance came to 1.6 mL/min/kg. The CL renal in the data set “clinical [3]” stood at 1 mL/min/kg.

The compound `C[C@@H](O)[C@H]1C(=O)N2C(C(=O)O)=C(SCCN=CN)C[C@H]12` [IMIPENEM ANHYDROUS] returned a CL in the data set listed under Homo sapiens [1] of 1.5 mL/min/kg. The compound also showed a clearance in “clinical [2]” of 3 mL/min/kg. In “clinical [3]”, the CL renal was 1.5 mL/min/kg.

Compound `COc1ccc(Cl)cc1C(=O)NCCc1ccc(S(=O)(=O)NC(=O)NC2CCCCC2)cc1` [GLYBURIDE] returned a Fu with Plasma of 0.021. The compound also registered a CL in the data set listed under Homo sapiens [1] of 0.8 mL/min/kg. The compound further yielded a distribution volume (Vd) in [4] of 0.08 L/kg.

As for `CNC(=O)Oc1ccc2c(c1)[C@]1(C)CCN(C)[C@@H]1N2C` [PHYSOSTIGMINE], the CL in the data set listed under Homo sapiens [1] was 5.5 mL/min/kg. In the data set on Homo sapiens [5], this compound yielded a F_fraction of 0.01. In addition, in data set [4], the volume of distribution (Vd) was found to be 0.66 L/kg. This compound gave a clearance in the data set “clinical [2]” of 22 mL/min/kg. The same compound yielded a CL renal in the data set “clinical [3]” of 16.5 mL/min/kg.

`CCCCCN(CCCOC)C(=O)C(CCC(=O)O)NC(=O)c1ccc(Cl)c(Cl)c1` (stereo not drawn) [LOXIGLUMIDE] yielded a CL in the data set listed under Homo sapiens [1] of 1 mL/min/kg. The compound further yielded a clearance in the data set “clinical [2]” of 1 mL/min/kg. In “clinical [3]”, this compound registered a CL renal of 0.022 mL/min/kg.

In the data set on Plasma, `CCCCC(=O)N(Cc1ccc(-c2ccccc2-c2nnn[nH]2)cc1)[C@H](C(=O)O)C(C)C` returned a Fu of 0.04. The compound further displayed a CL in the data set filed under Homo sapiens [1] of 0.3 mL/min/kg. Also, in “clinical [3]”, the CL renal was 0.1 mL/min/kg.

Take `O=C1C(O)=C([C@H]2CC[C@H](c3ccc(Cl)cc3)CC2)C(=O)c2ccccc21` [ATOVAQUONE]: the Fu in the data set on Plasma is recorded as 0.001. Further, in the data set filed under Homo sapiens [1], the CL was 0.2 mL/min/kg. In [4], this compound yielded a Vd of 0.6 L/kg.

On to `Cc1ncc2n1-c1ccc(Cl)cc1C(c1ccccc1F)=NC2` [MIDAZOLAM], for which, in the data set filed under Homo sapiens [1], the CL worked out at 5.3 mL/min/kg. The same compound showed a F_fraction in the data set on Homo sapiens [5] of 0.38. In the data set filed under Homo sapiens [6], this compound had a CL_renal of 0 mL/min/kg.

In the case of `C[C@@H]1[C@H](O)[C@@H](C)/C=C/C=C/C=C/C=C/C=C/C=C/C=C/[C@H](O[C@@H]2O[C@H](C)[C@@H](O)[C@H](N)[C@@H]2O)C[C@@H]2O[C@](O)(C[C@@H](O)C[C@@H](O)[C@H](O)CC[C@@H](O)C[C@@H](O)CC(=O)O[C@H]1C)C[C@H](O)[C@H]2C(=O)O` [AMPHOTERICIN B], the CL in the data set listed under Homo sapiens [1] worked out at 0.4 mL/min/kg. The compound also gave a clearance in “clinical [2]” of 0.46 mL/min/kg. In the data set “clinical [3]”, the CL renal is 0.0138 mL/min/kg.

In the data set listed under Homo sapiens [1], `O=C(O)c1cc(/N=N/c2ccc(S(=O)(=O)Nc3ccccn3)cc2)ccc1O` [SULFASALAZINE] displayed a CL of 0.2 mL/min/kg. Besides, the clearance in the data set “clinical [2]” worked out at 0.24 mL/min/kg. This compound returned a CL renal in the data set “clinical [3]” of 0.1 mL/min/kg.

Consider `CCCc1cc(=O)[nH]c(=S)[nH]1` [PROPYLTHIOURACIL], for which the Fu in the data set on Plasma stood at 0.18. In addition, the CL in the data set listed under Homo sapiens [1] is 3.1 mL/min/kg. The compound also yielded a Fg in the data set listed under Homo sapiens [7] of 0.97. This compound also yielded a Fh in the data set listed under Homo sapiens [8] of 0.87.

For `CCc1cccc2cc(C(O)CNC(C)(C)C)oc12` (stereo not drawn) [BUFURALOL], the CL in the data set listed under Homo sapiens [1] was 8.9 mL/min/kg. The same compound had a F_fraction in the data set with Homo sapiens [5] of 0.43. The Fa in the data set listed under Homo sapiens [9] stood at 1. Further, the Fg in the data set filed under Homo sapiens [7] came to 0.7. In the data set listed under Homo sapiens [8], this compound gave a Fh of 0.61. In addition, the CL_renal in the data set filed under Homo sapiens [6] came to 0 mL/min/kg. In the data set filed under Homo sapiens [10], the fraction unbound was found to be 0.19.

Compound `CCOC(=O)C1(c2ccccc2)CCC=CC1N(C)C` (stereo not drawn) [TILIDINE] came in with a CL in the data set filed under Homo sapiens [1] of 15.7 mL/min/kg. For the same compound, in data set [4], the Vd turned out to be 4 L/kg. The compound further registered a free fraction (fraction unbound) in the data set listed under Homo sapiens [10] of 0.21. This compound also came in with a CL renal in “clinical [3]” of 0.3 mL/min/kg.

In the data set filed under Homo sapiens [1], `CO/N=C(\C(=O)N[C@@H]1C(=O)N2C(C(=O)O)=C(C)CS[C@H]12)c1csc(N)n1` registered a CL of 0.4 mL/min/kg. Besides, the fraction unbound in the data set filed under Homo sapiens [10] is 0.78.

Regarding `COc1cc([C@@H]2c3cc4c(cc3[C@@H](O[C@@H]3O[C@@H]5CO[C@@H](C)O[C@H]5[C@H](O)[C@H]3O)[C@H]3COC(=O)[C@H]23)OCO4)cc(OC)c1O` [ETOPOSIDE], in the data set filed under Homo sapiens [1], the CL amounted to 0.3 mL/min/kg. Also, in the data set filed under Homo sapiens [8], the Fh stood at 0.99. The compound also had a clearance in “clinical [2]” of 0.5 mL/min/kg. The compound also returned a CL renal in “clinical [3]” of 0.2 mL/min/kg.

In the data set filed under Homo sapiens [1], `CC(C)c1nc(CN(C)C(=O)N[C@H](C(=O)N[C@@H](Cc2ccccc2)C[C@H](O)[C@H](Cc2ccccc2)NC(=O)OCc2cncs2)C(C)C)cs1` [RITONAVIR] had a CL of 1.2 mL/min/kg. The same compound registered a clearance in the data set “clinical [2]” of 1.2 mL/min/kg. For the same compound, the CL renal in “clinical [3]” worked out at 0.042 mL/min/kg.

The compound `Cc1cccc(C)c1NC(=O)NCCCNC(C)C` displayed a CL in the data set filed under Homo sapiens [1] of 2.2 mL/min/kg. In addition, the fraction unbound in the data set listed under Homo sapiens [10] came to 0.86.

Compound `CC(C)N(CCC(C(N)=O)(c1ccccc1)c1ccccn1)C(C)C` (stereo not drawn) [DISOPYRAMIDE] returned a Fu with Plasma of 0.16. In addition, in the data set listed under Homo sapiens [1], the CL was 0.4 mL/min/kg.

Turning to `O=C1NC(=O)C(c2ccccc2)(c2ccccc2)N1` [PHENYTOIN], the CL in the data set filed under Homo sapiens [1] came to 0.4 mL/min/kg. Further, in the data set listed under Homo sapiens [8], the Fh turned out to be 0.98. The compound further came in with a clearance in “clinical [2]” of 0.37 mL/min/kg. The CL renal in “clinical [3]” is 0.0074 mL/min/kg.

`COc1ccc2c(c1)c(CC(=O)O)c(C)n2C(=O)c1ccc(Cl)cc1` [INDOMETHACIN] registered a Fu in the data set on Plasma of 0.01. Further, the CL in the data set listed under Homo sapiens [1] stood at 1.1 mL/min/kg.

`CNC[C@H](O)CC12CCC(c3ccccc31)c1ccccc12` [LEVOPROTILINE]: the CL in the data set filed under Homo sapiens [1] is 12.1 mL/min/kg. In the data set “clinical [2]”, the clearance was 12.3 mL/min/kg. In “clinical [3]”, the CL renal worked out at 0.2 mL/min/kg.

The compound `COCc1c(C(C)C)nc(C(C)C)c(/C=C/[C@@H](O)C[C@@H](O)CC(=O)O)c1-c1ccc(F)cc1` [CERIVASTATIN] displayed a CL in the data set filed under Homo sapiens [1] of 2.9 mL/min/kg. The same compound displayed a CL_renal in the data set filed under Homo sapiens [6] of 0 mL/min/kg.

In the data set on Plasma, `C[C@]12C=CC(=O)C=C1CC[C@@H]1[C@@H]2[C@@H](O)C[C@@]2(C)[C@H]1CC[C@]2(O)C(=O)CO` [PREDNISOLONE] had a Fu of 0.25. For the same compound, in the data set filed under Homo sapiens [1], the CL turned out to be 2.3 mL/min/kg.

Regarding GENTAMICIN, the Fu with Plasma is listed as 1. The CL in the data set filed under Homo sapiens [1] is 0.3 mL/min/kg.

Take `c1ccc2c(c1)OCC(C1=NCCN1)O2` (stereo not drawn) [IDAZOXAN]: the CL in the data set filed under Homo sapiens [1] was determined as 10 mL/min/kg. The same compound registered a clearance in the data set “clinical [2]” of 10 mL/min/kg.

`Nc1nnc(-c2cccc(Cl)c2Cl)c(N)n1` [LAMOTRIGINE]: in the data set filed under Homo sapiens [1], the CL worked out at 0.6 mL/min/kg. In addition, the F_fraction with Homo sapiens [5] is given as 0.98. The compound also yielded a clearance in the data set “clinical [2]” of 0.6 mL/min/kg. For the same compound, in “clinical [3]”, the CL renal was found to be 0.042 mL/min/kg.

Turning to `CC(C)(C)NCC(O)COc1cccc2c1CC(O)C(O)C2` (stereo not drawn) [NADOLOL], in the data set with Plasma, the Fu stood at 0.14. In the data set filed under Homo sapiens [1], this compound had a CL of 1.1 mL/min/kg.

As for `COc1ccnc(C[S+]([O-])c2nc3ccc(OC(F)F)cc3[nH]2)c1OC` (stereo not drawn) [PANTOPRAZOLE], in the data set filed under Homo sapiens [1], the CL was found to be 2.2 mL/min/kg. The compound further displayed a volume of distribution (Vdss) in the data set filed under Homo sapiens [11] of 6.3 L/kg.

For the compound `CO/N=C(\C(=O)N[C@@H]1C(=O)N2C(C(=O)O)=C(CSc3nc(=O)c(=O)[nH]n3C)CS[C@H]12)c1csc(N)n1` [CEFTRIAXONE], in the data set with Plasma, the Fu worked out at 0.052. The same compound registered a CL in the data set listed under Homo sapiens [1] of 0.1 mL/min/kg. The compound also displayed a CL renal in the data set “clinical [3]” of 0.1 mL/min/kg.
